# Several values for one entry are separate records, joined by “and”; a condition that tells them apart may be missing. Equal values may be shown once. Where a name gives a salt, the structure may show the parent alone.
# Experiments:
# [1] = Chimney test (motor coordination); assay type: in vivo, mice
# Method: The impact of SSR504734 on motor coordination in mice was evaluated by using the chimney test. Each animal was individually placed inside a transparent Plexiglas tube with an inner diameter of 3 cm and a length of 30 cm. The tube was horizontally positioned on a table and shifted vertically once the mouse reached the opposite end. Within a 60 s time frame, the mouse was required to climb backward to escape from the tube. In order to minimize the number of animals used, a chimney test was carried out shortly before seizure tests.
# Table S2. Time-course effect of SSR5504734 on neuromuscular strength and motor […]
# Group Neuromuscular strength Impairment of motor
# SSR504734 was dissolved in normal saline and injected i.p. at the dose of 30 mg/kg. Control animals received saline. The data are expressed as the mean ± SD of grip strengths measured in millinewtons per gram of mouse body weight (mN/g) from the grip-strength test assessing […]
# coordination impairment in the chimney test. Each experimental group consisted of 12 animals. The grip-strength test results were analyzed using a one-way ANOVA with Dunnett’s post hoc test, while the data from the chimney test were statistically evaluated using Fisher’s exact probability test. *p<0.05 vs. control group.
# Table S3. Effect of acute and 14-day treatment with SSR504734 on neuromuscular strength and motor coordination in mice
# In acute studies, SSR504734 and sodium valproate (VPA; positive control) were injected i.p.
# 60 and 15 min before the test, respectively. In subchronic studies, SSR504734 and VPA were injected i.p. every 24 h for 14 days. The last administration was made 60 and 15 min before the tests, respectively. Control animals received saline. Each experimental group consisted of 12 animals. The grip-strength test results were analyzed using a one-way ANOVA with […]
# Fisher’s exact probability test.
# [2] = tested on: glutamate, GABA, adenosine, glycine concentrations in cortex, hippocampus, brainstem; assay: Determination of neurotransmitters in brain structures (LC-MS/MS, HPLC-FLD); assay type: in vivo, mice
# Method: Mice were administered with SSR504734 or saline acutely or repeatedly for 14 days and subjected to maximal electroshock seizures 60 min after treatment. Immediately following seizure induction, the animals were decapitated. Brains were removed from the skull and washed with ice-cold 0.9% NaCl. Cortex, hippocampus, and brainstem were isolated by microdissection and collected into Eppendorf tubes. Samples were frozen in liquid nitrogen and kept at −80 °C until the day of analysis.
# Adenosine, GABA, and glutamate concentrations in mouse cortex, brainstem, and hippocampus were determined using an LC-MS/MS method. Stock solutions of GABA, adenosine, glutamate, and their internal standards (ISs), i.e., adenosine-13C5, GABA-d6, and glutamate-d5 (Toronto Research Chemicals Inc., Canada), were prepared using methanol for GABA and its IS and deionized water for adenosine, glutamate, and their ISs and stored at 4 °C. The stock solutions of GABA, adenosine, and glutamate were then appropriately diluted with acetonitrile/water 1:1 (v/v) solution to achieve various concentration levels required for the experiments. Brain tissue samples were homogenized using a Bead Ruptor Elite, bead mill homogenizer (Omni International, USA) with 90 μL of deionized water per 10 mg of tissue. The resulting homogenates were further diluted at 1:10 to 1:100 (v/v) ratios (depending on the expected analyte concentration) with acetonitrile/water 1:1 (v/v) solution. […] The supernatants were then placed in autosampler vials.
# Analyte separation was performed on an Exion LC AC system (Sciex, USA) coupled with a QTRAP 4500 triple quadrupole MS instrument (Sciex, USA). A 0.2 to 2 μL aliquot of sample was injected via an autosampler maintained at 15 °C into an XBridge HILIC (Waters, Ireland) analytical column (2.1 × 150 mm, 3.5 μm) with the column oven set at 25 °C.
# MS detection employed electrospray ionization (ESI) in positive ion mode. According to the results of flow-injection analysis, curtain gas was set at 30 psi, ion spray voltage at 5500 V, and the source temperature at 450 °C, with ion spray gases 1 and 2 at 50 and 40 psi, respectively.
# Data acquisition and processing were conducted with Analyst version 1.7 software. The calibration curves were constructed by plotting the ratio of the peak areas of the target analytes to those of their respective ISs against the concentrations of the analytes. These curves were derived using a weighted linear regression analysis method (1/x). Due to the availability of stable isotope-labeled standards and the high endogenous concentrations of adenosine, glutamate, and GABA in the brain tissue, the calibrators were prepared in water.
# Glycine concentrations in brain structures were analyzed by using high-performance liquid chromatography with fluorescence detection (HPLC-FLD). A stock solution of glycine (20 mg/mL) was prepared in water and diluted with the same solvent to prepare working standard solutions at the concentration range of 0.2–20 μg/mL. The homogenates were obtained as described above, and they were centrifuged before analysis for 5 min at 10,000 rpm (Eppendorf miniSpin centrifuge). To prepare samples for analysis, 2 μL (for brainstem) or 5 μL (for the remaining structures) of homogenate supernatants was transferred to Eppendorf tubes and diluted with water to 20 μL. […] The reaction mixture was vortexed for 15 s, spinned down to make sure that all the sample is at the bottom of the tube, and incubated for 3 min at room temperature in darkness. The aliquots of 5 μL were injected into the column. […] The EZChrom Elite Client/Server v. 3.2 software was used for data collection and analysis. […] The mobile phase consisted of methanol (solvent A) and 0.05 M phosphate buffer adjusted to pH = 4.5 with phosphoric acid 30% (solvent B) and run in a gradient mode at a flow rate of 1 mL/min.
# [3] = tested on: 6 Hz-induced psychomotor seizures in mice; assay: 6 Hz-induced psychomotor seizure threshold test; assay type: in vivo; details: SSR504734 any of the doses tested, VPA 150 mg/kg
# Method: Psychomotor seizures were induced through the application of rectangular pulses (0.2 ms width; 6 pulses per second) for 3 s using a Grass model CCU1 constant current unit coupled to a Grass S48 stimulator (Grass Technologies, Warwick, RI, USA). Stimuli were delivered via saline-soaked transcorneal electrodes. An ocular anesthetic (1% tetracaine hydrochloride) was administered on the animal’s corneas. Mice were restrained manually during stimulation and placed in transparent box immediately for behavioral observation. 6 Hz-induced seizures were characterized by head-nodding, chewing, eye-blinking, twitching of the vibrissae, rearing, stunned posture, forelimb clonus, and Straub tail. The absence of the described features or the return to normal exploratory behavior within 20 s poststimulation was considered as the absence of seizures. The 6 Hz seizure threshold test were conducted on groups of 20 animals stimulated with different current intensities by using the “up-and-down” method described by Kimball et al.[28]
# The seizure threshold was quantified as the median current strength (CS50 value with confidence limits for 95% probability), predicting the induction of psychomotor seizures in 50% of the tested animals.
# [4] = acute treatment i.p., nonstimulated (sham) mice
structure (smiles),measurement,setting,value
"O=C(NC(c1ccccc1)C1CCCCN1)c1cccc(C(F)(F)F)c1Cl [SSR504734, 2-chloro-N-[(S)-phenyl[(2S)-piperidin-2-yl]methyl]-3-trifluoromethyl benzamide monohydrochloride]",Impairment of motor coordination,"[1]; 30 mg/kg i.p., 15 min",0%
same,Impairment of motor coordination,"[1]; 30 mg/kg i.p., 30 min",0%
same,Impairment of motor coordination,"[1]; 30 mg/kg i.p., 60 min",0%
same,Impairment of motor coordination,"[1]; 30 mg/kg i.p., 120 min",8.33%
same,Impairment of motor coordination,"[1]; 30 mg/kg i.p., 240 min",0%
same,Impairment of motor coordination,"[1]; 14-day treatment, 3 mg/kg i.p.",0%
same,Impairment of motor coordination,"[1]; 14-day treatment, 10 mg/kg i.p.",0%
same,Impairment of motor coordination,"[1]; 14-day treatment, 30 mg/kg i.p.",0%
same,Impairment of motor coordination,"[1]; acute treatment, 10 mg/kg i.p.",0%
same,Impairment of motor coordination,"[1]; acute treatment, 30 mg/kg i.p.",0%
same,Impairment of motor coordination,"[1]; acute treatment, 50 mg/kg i.p., 50 mg/kg",33.3% and ~33%
same,"glutamate, GABA, adenosine, glycine concentrations in brain structures","[2]; 14-day treatment, nonstimulated (sham) and MES-stimulated mice",No alterations
same,GABA and glycine concentrations in any of the studied brain regions,[2]; acute treatment i.p.,did not alter
same,adenosine concentrations in cortex and hippocampus,[2]; acute treatment i.p.,no changes
same,glutamate concentration in cortex and hippocampus,[2]; acute treatment i.p.,No alterations
same,glutamate concentration in the brainstem,"[2]; acute treatment i.p., mice subjected to the MES test",no statistically significant changes
same,fold decrease of adenosine concentration in the brainstem,[2]; [4],~2 fold
same,glutamate concentration in the brainstem,[2]; [4],significant decrease
same,effect on current intensity necessary to induce psychomotor seizures,[3]; 14-day administration i.p.,no statistically significant effect
same,effect on current intensity necessary to induce psychomotor seizures,[3]; single administration i.p.,no statistically significant effect
